Here are results for two molecules from patent publication US20260053921A1, “A MULTIPLEXED RNA REGULATION PLATFORM FOR PRIMARY IMMUNE CELL ENGINEERING” (The Board of Trustees of the Leland Stanford Junior …, priority 2022, published 2026).

In one assay the test system is CD46. Put plainly: Cycloheximide flow cytometric chase assay of CD46 protein degradation. The note with it: primary human T cells. The class given is cell-based. (In general: In flow cytometry, cells or beads pass a laser one at a time.)
The test system of a further assay is transgenic GFP reporter. Put plainly: crRNA-guided knockdown of a transgenic GFP reporter in primary human T cells. The class given is cell-based. To be noted: lentivirally-integrated.

For the molecule `C[C@@H]1C[C@@H]([C@H](O)CC2CC(=O)NC(=O)C2)C(=O)[C@@H](C)C1` [CHX, cycloheximide], the “CD46 expression after CHX addition” value with CD46 is given as “did not reach half-maximal expression prior to T cell apoptosis”.

B1: RfxCas13d: Ruminococcus flavefaciens Cas13d, SEQ ID NO: 1 (protein)
chain: MIEKKKSFAKGMGVKSTLVSGSKVYMTTFAEGSDARLEKIVEGDSIRSVNEGEAFSAEMADKNAGYKIGNAKFSHPKGYAVVANNPLYTGPVQQDMLGLKETLEKRYFGESADGNDNICIQVIHNILDIEKILAEYITNAAYAVNNISGLDKDIIGFGKFSTVYTYDEFKDPEHHRAAFNNNDKLINAIKAQYDEFDNFLDNPRLGYFGQAFFSKEGRNYIINYGNECYDILALLSGLRHWVVHNNEEESRISRTWLYNLDKNLDNEYISTLNYLYDRITNELTNSFSKNSAANVNYIAETLGINPAEFAEQYFRFSIMKEQKNLGFNITKLREVMLDRKDMSEIRKNHKVFDSIRTKVYTMMDFVIYRYYIEEDAKVAAANKSLPDNEKSLSEKDIFVINLRGSFNDDQKDALYYDEANRIWRKLENIMHNIKEFRGNKTREYKKKDAPRLPRILPAGRDVSAFSKLMYALTMFLDGKEINDLLTTLINKFDNIQSFLKVMPLIGVNAKFVEEYAFFKDSAKIADELRLIKSFARMGEPIADARRAMYIDAIRILGTNLSYDELKALADTFSLDENGNKLKKGKHGMRNFIINNVISNKRFHYLIRYGDPAHLHEIAKNEAVVKFVLGRIADIQKKQGQNGKNQIDRYYETCIGKDKGKSVSEKVDALTKIITGMNYDQFDKKRSVIEDTGRENAEREKFKKIISLYLTVIYHILKNIVNINARYVIGFHCVERDAQLYKEKGYDINLKKLEEKGFSSVTKLCAGIDETAPDKRKDVEKEMAERAKESIDSLESANPKLYANYIKYSDEKKAEEFTRQINREKAKTALNAYLRNTKWNVIIREDLLRIDNKTCTLFRNKAVHLEVARYVHAYINDIAEVNSYFQLYHYIMQRIIMNERYEKSSGKVSEYFDAVNDEKKYNDRLLKLLCVPFGYCIPRFKNLSIEALFDRNEAAKFDKEKKKVSGNS
Consider B1, for which, in the assay with transgenic GFP reporter, the “functional activity: knockdown of GFP reporter” value is reported as “confirmed the functional activity”.
